Starred links: 1 amine or outer side, 2 acyl side, 3 side chain; linkers in the order of their positions; H or OH if unused. Positions of bridges follow the written chain, without caps; N, C: chain ends. Non-standard residues stand in square brackets, D forms with d. Residues, ends and D or L forms follow the SMILES beside them. *: point of attachment. X1 = O=C([C@@H]1C[C@H](N[*:3])CN1[*:1])[*:2]; oXylylene = c1ccc(C[*:2])c(C[*:1])c1; Stearoyl = CCCCCCCCCCCCCCCCCC(=O)*

Sequence of Keap1-Maltose Binding Protein (MBP tag) (Q14145 whole entry): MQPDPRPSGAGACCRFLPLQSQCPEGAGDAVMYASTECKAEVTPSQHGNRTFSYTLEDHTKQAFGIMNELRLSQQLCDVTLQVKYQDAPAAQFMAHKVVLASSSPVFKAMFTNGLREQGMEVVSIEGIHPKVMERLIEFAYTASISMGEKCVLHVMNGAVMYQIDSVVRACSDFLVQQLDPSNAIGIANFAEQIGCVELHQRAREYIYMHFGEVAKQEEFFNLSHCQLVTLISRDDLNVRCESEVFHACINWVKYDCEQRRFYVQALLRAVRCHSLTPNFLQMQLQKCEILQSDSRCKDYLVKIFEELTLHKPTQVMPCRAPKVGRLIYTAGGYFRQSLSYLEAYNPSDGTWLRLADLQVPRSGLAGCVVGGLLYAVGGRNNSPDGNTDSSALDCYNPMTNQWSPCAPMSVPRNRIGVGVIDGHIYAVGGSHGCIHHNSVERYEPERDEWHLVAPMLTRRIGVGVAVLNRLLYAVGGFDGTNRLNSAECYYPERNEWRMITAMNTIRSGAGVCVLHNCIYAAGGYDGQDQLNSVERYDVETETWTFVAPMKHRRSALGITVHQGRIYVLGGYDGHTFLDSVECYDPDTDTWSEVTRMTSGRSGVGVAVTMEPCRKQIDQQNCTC

The first assay addresses Keap1-Maltose Binding Protein (MBP tag) (Homo sapiens, UniProt Q14145). The assay is described as follows: Nrf2-Keap1 HTRF (TR-FRET) binding assay: displacement of biotinylated ETGE peptide from Keap1-MBP.
Conditions: not given
Turning to `CCCCCCCCCCCCCCCCCC(=O)N[C@H]1C[C@H]2C(=O)N[C@@H](CCC(N)=O)C(=O)N[C@H]3CSCc4cccc(c4)CSC[C@H](NC(=O)[C@H](CCC(=O)O)NC(=O)CNC(=O)[C@H]([C@@H](C)O)NC(=O)[C@H](CCC(=O)O)NC(=O)[C@@H]4CCCN4C(=O)[C@H](CC(=O)O)NC3=O)C(=O)N[C@@H](CC(C)C)C(=O)N3CCC[C@@H]3C(=O)N2C1` [Example 74, {[&^1Pro((4S)-NH-Stearyl)-Gln-Cys(&^2)-Asp-Pro-Glu-Thr-Gly-Glu-Cys(&^3)-Leu-D-Pro&^1][&^2(1,3-phenylenediyl)dimethylene&^3]}], the IC50 was < 1 nM.

`CCCCCCCCCCCCCCCCCC(=O)N[C@H]1C[C@@H](C(=O)N[C@@H](CCC(N)=O)C(=O)N[C@H]2CSCc3ccccc3CSC[C@@H](C(=O)N[C@@H](CC(C)C)C(=O)N3CCC[C@@H]3C(N)=O)NC(=O)[C@H](CCC(=O)O)NC(=O)CNC(=O)[C@H]([C@@H](C)O)NC(=O)[C@H](CCC(=O)O)NC(=O)[C@@H]3CCCN3C(=O)[C@H](CC(=O)O)NC2=O)N(C(C)=O)C1` [Example 75, {[Acetyl-Pro((4S)-NH-Stearyl)-Gln-Cys(&^1)-Asp-Pro-Glu-Thr-Gly-Glu-Cys(&^2)-Leu-D-Pro-NH2][&^1(1,2-phenylenediyl)dimethylene^2]}] registered a 50% inhibitory concentration (IC50) of 1 to 100 nM.

With `CCCCCCCCCCCCCCCCCC(=O)N1CCC[C@H]1C(=O)N[C@@H](CCC(N)=O)C(=O)N[C@H]1CSCc2ccccc2CSC[C@@H](C(=O)N[C@@H](CC(C)C)C(=O)N2CCC[C@@H]2C(N)=O)NC(=O)[C@H](CCC(=O)O)NC(=O)CNC(=O)[C@H]([C@@H](C)O)NC(=O)[C@H](CCC(=O)O)NC(=O)[C@@H]2CCCN2C(=O)[C@H](CC(=O)O)NC1=O` [Example 76, {[Stearyl-Pro-Gln-Cys(&^1)-Asp-Pro-Glu-Thr-Gly-Glu-Cys(&^2)-Leu-D-Pro-NH2][&^1(1,2-phenylenediyl)dimethylene^2]}] (Stearoyl-PQCDPETGECL[dP]-NH2; linker 3-10 via oXylylene), the half-inhibitory concentration (IC50) is 1 to 100 nM.

Consider `CCCCCCCCCCCCCC(=O)N[C@H]1C[C@H]2C(=O)N[C@@H](CCC(N)=O)C(=O)N[C@H]3CSCc4ccccc4CSC[C@H](NC(=O)[C@H](CCC(=O)O)NC(=O)CNC(=O)[C@H]([C@@H](C)O)NC(=O)[C@H](CCC(=O)O)NC(=O)[C@@H]4CCCN4C(=O)[C@H](CC(=O)O)NC3=O)C(=O)N[C@@H](CC(C)C)C(=O)N3CCC[C@@H]3C(=O)N2C1` [Example 80, {[&^1Pro((4S)-NH-Miristoyl)-Gln-Cys(&^2)-Asp-Pro-Glu-Thr-Gly-Glu-Cys(&^3)-Leu-D-Pro&^1][&^2(1,2-phenylenediyl)dimethylene&^3]}], for which the IC50 is < 1 nM.

The compound `CCCCCCCCCCCCCCCCCC(=O)N[C@H]1C[C@H]2C(=O)N[C@@H](CCC(N)=O)C(=O)N[C@H]3CSCc4ccccc4CSC[C@H](NC(=O)[C@H](CCC(=O)O)NC(=O)CNC(=O)[C@H]([C@@H](C)O)NC(=O)[C@H](CCC(=O)O)NC(=O)[C@@H]4CCCN4C(=O)[C@H](CC(=O)O)NC3=O)C(=O)N[C@@H](CCCCN)C(=O)N3CCC[C@@H]3C(=O)N2C1` [Example 82, {[&^1Pro((4S)-NH-Stearyl)-Gln-Cys(&^2)-Asp-Pro-Glu-Thr-Gly-Glu-Cys(&^3)-Lys-D-Pro&^1][&^2(1,2-phenylenediyl)dimethylene&^3]}] (cyclo(CDPETGECK[dP][X1](Stearoyl)Q); linker 1-8 via oXylylene) yielded an IC50 of 1 to 100 nM.

Regarding `CCCCCCCCCCCCCCCC(=O)N[C@H]1C[C@H]2C(=O)N[C@@H](CCC(N)=O)C(=O)N[C@H]3CSCc4ccccc4CSC[C@H](NC(=O)[C@H](CCC(=O)O)NC(=O)CNC(=O)[C@H]([C@@H](C)O)NC(=O)[C@H](CCC(=O)O)NC(=O)[C@@H]4CCCN4C(=O)[C@H](CC(=O)O)NC3=O)C(=O)N[C@@H](CC(C)C)C(=O)N3CCC[C@@H]3C(=O)N2C1` [Example 83, {[&^1Pro((4S)-NH-Palmitoyl)-Gln-Cys(&^2)-Asp-Pro-Glu-Thr-Gly-Glu-Cys(&^3)-Leu-D-Pro&^1][&^2(1,2-phenylenediyl)dimethylene&^3]}], the IC50 is < 1 nM.

In the case of `CCCCCCCCCCCC(=O)N[C@H]1C[C@H]2C(=O)N[C@@H](CCC(N)=O)C(=O)N[C@H]3CSCc4ccccc4CSC[C@H](NC(=O)[C@H](CCC(=O)O)NC(=O)CNC(=O)[C@H]([C@@H](C)O)NC(=O)[C@H](CCC(=O)O)NC(=O)[C@@H]4CCCN4C(=O)[C@H](CC(=O)O)NC3=O)C(=O)N[C@@H](CC(C)C)C(=O)N3CCC[C@@H]3C(=O)N2C1` [Example 85, {[&^1Pro((4S)-NH-Lauryl)-Gln-Cys(&^2)-Asp-Pro-Glu-Thr-Gly-Glu-Cys(&^3)-Leu-D-Pro&^1][&^2(1,2-phenylenediyl)dimethylene&^3]}], the IC50 was < 1 nM.

Consider `CC/C=C\C/C=C\C/C=C\CCCCCCCC(=O)N[C@H]1C[C@H]2C(=O)N[C@@H](CCC(N)=O)C(=O)N[C@H]3CSCc4ccccc4CSC[C@H](NC(=O)[C@H](CCC(=O)O)NC(=O)CNC(=O)[C@H]([C@@H](C)O)NC(=O)[C@H](CCC(=O)O)NC(=O)[C@@H]4CCCN4C(=O)[C@H](CC(=O)O)NC3=O)C(=O)N[C@@H](CC(C)C)C(=O)N3CCC[C@@H]3C(=O)N2C1` [Example 86, {[&^1Pro((4S)-NH-α-linolenyl)-Gln-Cys(&^2)-Asp-Pro-Glu-Thr-Gly-Glu-Cys(&^3)-Leu-D-Pro&^1][&^2(1,2-phenylenediyl)dimethylene&^3]}], for which the concentration for half-maximal inhibition (IC50) was < 1 nM.

Compound `CCCCCCCC/C=C/CCCCCCCC(=O)N[C@H]1C[C@H]2C(=O)N[C@@H](CCC(N)=O)C(=O)N[C@H]3CSCc4ccccc4CSC[C@H](NC(=O)[C@H](CCC(=O)O)NC(=O)CNC(=O)[C@H]([C@@H](C)O)NC(=O)[C@H](CCC(=O)O)NC(=O)[C@@H]4CCCN4C(=O)[C@H](CC(=O)O)NC3=O)C(=O)N[C@@H](CC(C)C)C(=O)N3CCC[C@@H]3C(=O)N2C1` [Example 87, {[&^1Pro((4S)-NH-elaidyl)-Gln-Cys(&^2)-Asp-Pro-Glu-Thr-Gly-Glu-Cys(&^3)-Leu-D-Pro&^1][&^2(1,2-phenylenediyl)dimethylene&^3]}] registered an IC50 of 1 to 100 nM.

Turning to `CCCCCCCC/C=C\CCCCCCCC(=O)N[C@H]1C[C@H]2C(=O)N[C@@H](CCC(N)=O)C(=O)N[C@H]3CSCc4ccccc4CSC[C@H](NC(=O)[C@H](CCC(=O)O)NC(=O)CNC(=O)[C@H]([C@@H](C)O)NC(=O)[C@H](CCC(=O)O)NC(=O)[C@@H]4CCCN4C(=O)[C@H](CC(=O)O)NC3=O)C(=O)N[C@@H](CC(C)C)C(=O)N3CCC[C@@H]3C(=O)N2C1` [Example 88, {[&^1Pro((4S)-NH-oleyl)-Gln-Cys(&^2)-Asp-Pro-Glu-Thr-Gly-Glu-Cys(&^3)-Leu-D-Pro&^1][&^2(1,2-phenylenediyl)dimethylene&^3]}], the IC50 was < 1 nM.

On to `CCCCCCCCCCCCCCCCCCCCCC(=O)N[C@H]1C[C@H]2C(=O)N[C@@H](CCC(N)=O)C(=O)N[C@H]3CSCc4ccccc4CSC[C@H](NC(=O)[C@H](CCC(=O)O)NC(=O)CNC(=O)[C@H]([C@@H](C)O)NC(=O)[C@H](CCC(=O)O)NC(=O)[C@@H]4CCCN4C(=O)[C@H](CC(=O)O)NC3=O)C(=O)N[C@@H](CC(C)C)C(=O)N3CCC[C@@H]3C(=O)N2C1` [Example 89, {[&^1Pro((4S)-NH-behenyl)-Gln-Cys(&^2)-Asp-Pro-Glu-Thr-Gly-Glu-Cys(&3)-Leu-D-Pro&^1][&^2(1,2-phenylenediyl)dimethylene&^3]}], for which the IC50 was < 1 nM.

With `CCCCCCCCCCCCCCCCCCCC(=O)N[C@H]1C[C@H]2C(=O)N[C@@H](CCC(N)=O)C(=O)N[C@H]3CSCc4ccccc4CSC[C@H](NC(=O)[C@H](CCC(=O)O)NC(=O)CNC(=O)[C@H]([C@@H](C)O)NC(=O)[C@H](CCC(=O)O)NC(=O)[C@@H]4CCCN4C(=O)[C@H](CC(=O)O)NC3=O)C(=O)N[C@@H](CC(C)C)C(=O)N3CCC[C@@H]3C(=O)N2C1` [Example 90, {[&^1Pro((4S)-NH-arachidyl)-Gln-Cys(&^2)-Asp-Pro-Glu-Thr-Gly-Glu-Cys(&^3)-Leu-D-Pro&^1][&^2(1,2-phenylenediyl)dimethylene&^3]}], the IC50 was < 1 nM.

For the compound `CCCCCCCCCCCCCCCCCC(=O)NCCCC[C@@H]1NC(=O)[C@H]2CCCN2C(=O)[C@H](CC(C)C)NC(=O)[C@@H]2CSCc3ccccc3CSC[C@H](NC(=O)[C@H](CCC(N)=O)NC1=O)C(=O)N[C@@H](CC(=O)O)C(=O)N1CCC[C@H]1C(=O)N[C@@H](CCC(=O)O)C(=O)N[C@@H]([C@@H](C)O)C(=O)NCC(=O)N[C@@H](CCC(=O)O)C(=O)N2` [Example 91, {[&^1Lys(N^6-Stearyl)-Gln-Cys(&^2)-Asp-Pro-Glu-Thr-Gly-Glu-Cys(&^3)-Leu-D-Pro&^1][&^2(1,2-phenylenediyl)dimethylene&^3]}], the IC50 is < 1 nM.

On to `CCCCCCCCCCCCCCCCCCCC(=O)N[C@H]1C[C@H]2C(=O)N[C@@H](CCC(N)=O)C(=O)N[C@H]3CSCC4(COC4)CSC[C@H](NC(=O)[C@H](CCC(=O)O)NC(=O)CNC(=O)[C@H]([C@@H](C)O)NC(=O)[C@H](CCC(=O)O)NC(=O)[C@@H]4CCCN4C(=O)[C@H](CC(=O)O)NC3=O)C(=O)N[C@@H](CC(C)C)C(=O)N3CCC[C@@H]3C(=O)N2C1` [Example 95, {[&^1Pro((4S)-NH-Arachidyl)-Gln-Cys(&^2)-Asp-Pro-Glu-Thr-Gly-Glu-Cys(&^3)-Leu-D-Pro&^1][&^2(3,3-oxetanediyl)dimethylene&^3]}], for which the IC50 was < 1 nM.

Staying with this assay, now noted: HTRF (TR-FRET); displacement of ETGE-biotin from Keap1-MBP; values banded into grades; read-out: Binding (IC50) ETGE-Keap1.
With `CCCCCCCCCCCCCCCCCC(=O)N[C@H]1C[C@H]2C(=O)N[C@@H](CCC(N)=O)C(=O)N[C@H]3CSCc4ccccc4CSC[C@H](NC(=O)[C@H](CCC(=O)O)NC(=O)CNC(=O)[C@H]([C@@H](C)O)NC(=O)[C@H](CCC(=O)O)NC(=O)[C@@H]4CSCN4C(=O)[C@H](CC(=O)O)NC3=O)C(=O)N[C@@H](CC(C)C)C(=O)N3CCC[C@@H]3C(=O)N2C1` [Example 78, {[&^1Pro((4S)-NH-Stearyl)-Gln-Cys(&^2)-Asp-Thz-Glu-Thr-Gly-Glu-Cys(&^3)-Leu-D-Pro&^1][&^2(1,2-phenylenediyl)dimethylene&^3]}], the half-maximal inhibitory concentration (IC50) was < 1 nM.

Take `CCCCCCCCCCCCCCCCCC(=O)N[C@H]1CCCCNC(=O)[C@H]2CCCN2C(=O)[C@H](CC(C)C)NC(=O)[C@@H]2CSCc3ccccc3CSC[C@H](NC(=O)[C@H](CCC(N)=O)NC1=O)C(=O)N[C@@H](CC(=O)O)C(=O)N1CCC[C@H]1C(=O)N[C@@H](CCC(=O)O)C(=O)N[C@@H]([C@@H](C)O)C(=O)NCC(=O)N[C@@H](CCC(=O)O)C(=O)N2` [Example 92, {[Stearyl-Lys(&^1)-Gln-Cys(&^2)-Asp-Pro-Glu-Thr-Gly-Glu-Cys(&^3)-Leu-D-Pro&^1][&^2(1,2-phenylenediyl)dimethylene&^3]}]: the half-inhibitory concentration (IC50) was < 1 nM.

Values taken from US20200255478A1, “NOVEL COMPOUNDS ACTIVATING THE NRF2 PATHWAY” (Almirall, S.A., priority 2017, published 2020).
